Reference: patent publication US9932320B2 (BRISTOL-MYERS SQUIBB COMPANY, priority 2014, dated 2018)

Target: T1, AAK1 (GST-Xa-hAAK1) (Homo sapiens, UniProt Q2M2I8)
T1 construct: made in house
Assay: AAK1 Kinase Assay (Caliper LabChip, fluoresceinated peptide substrate)
Type: biochemical
Conditions: AAK1 functional potency; class symbols; read-out: IC50 (nM), functional potency as IC50 ranges
Protocol: The assays were performed in U-bottom 384-well plates. The final assay volume was 30 μl prepared from 15 μl additions of enzyme and substrates (fluoresceinated peptide (5-FAM)-Aha-KEEQSQITSQVTGQIGWR-NH2 and ATP) and test compounds in assay buffer (10 mM Tris-HCL pH 7.4, 10 mM MgCl2, 0.01% Tween-20 and 1.0 mM DTT). The reactions were initiated by the combination of bacterially expressed, GST-Xa-hAAK1 with substrates and test compounds. The reactions were incubated at room temperature for 3 hours and terminated by adding 60 μl of 35 mM EDTA buffer to each sample. The reactions were analyzed on the Caliper LabChip 3000 (Caliper, Hopkinton, Mass.) by electrophoretic separation of the fluorescent substrate and phosphorylated product. Inhibition data were calculated by comparison to EDTA quenched control reactions for 100% inhibition and vehicle-only reactions for 0% inhibition. The final concentration of reagents in the assays are ATP, 22 μM; (5-FAM)-Aha-KEEQSQITSQVTGQIGWR-NH2, 1.5 μM; GST-Xa-hAAK1, 3.5 nM; and DMSO, 1.6%. Dose response curves were generated to determine the concentration required inhibiting 50% of kinase activity (IC50). Compounds were dissolved at 10 mM in dimethylsulfoxide (DMSO) and evaluated at eleven concentrations. IC50 values were derived by non-linear regression analysis.

T1 sequence (Q2M2I8 whole entry): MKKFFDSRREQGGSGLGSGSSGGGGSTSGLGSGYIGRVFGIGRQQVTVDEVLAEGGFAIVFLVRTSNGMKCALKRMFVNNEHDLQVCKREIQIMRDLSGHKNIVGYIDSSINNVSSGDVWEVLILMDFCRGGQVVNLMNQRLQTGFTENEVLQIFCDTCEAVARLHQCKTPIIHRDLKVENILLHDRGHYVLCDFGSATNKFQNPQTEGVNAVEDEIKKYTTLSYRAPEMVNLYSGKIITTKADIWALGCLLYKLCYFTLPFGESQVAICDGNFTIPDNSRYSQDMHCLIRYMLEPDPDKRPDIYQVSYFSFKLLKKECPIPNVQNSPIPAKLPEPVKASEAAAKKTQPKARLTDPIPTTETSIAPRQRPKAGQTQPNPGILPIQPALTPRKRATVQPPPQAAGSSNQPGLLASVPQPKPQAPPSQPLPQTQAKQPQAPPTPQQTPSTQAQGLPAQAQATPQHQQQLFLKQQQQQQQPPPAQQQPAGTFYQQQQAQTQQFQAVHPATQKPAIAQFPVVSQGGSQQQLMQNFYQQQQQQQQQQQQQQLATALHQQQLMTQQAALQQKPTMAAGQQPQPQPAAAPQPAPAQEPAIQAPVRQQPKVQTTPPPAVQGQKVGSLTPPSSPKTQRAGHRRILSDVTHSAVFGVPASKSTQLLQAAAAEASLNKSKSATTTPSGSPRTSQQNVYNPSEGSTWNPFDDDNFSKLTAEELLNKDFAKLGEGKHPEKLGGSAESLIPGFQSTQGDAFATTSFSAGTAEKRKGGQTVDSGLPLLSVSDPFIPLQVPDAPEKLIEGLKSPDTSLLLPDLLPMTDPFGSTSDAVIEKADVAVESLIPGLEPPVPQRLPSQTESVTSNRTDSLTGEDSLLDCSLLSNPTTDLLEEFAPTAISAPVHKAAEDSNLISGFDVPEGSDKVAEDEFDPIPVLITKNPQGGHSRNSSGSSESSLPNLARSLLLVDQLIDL

Row | IC50 [nM] | Compound
1 | 101 to 2500 | N#Cc1cc(C(N)C2CCCCC2)nc2ccc(-c3ccncc3)cc12 (centres unmarked) [Example 41, 2-(amino(cyclohexyl)methyl)-6-(pyridin-4-yl)quinoline-4-carbonitrile]
2 | 11 to 100 | CC(=O)Nc1cc(-c2ccc3nc(C(O)CC(C)C)ccc3c2)ccn1 (centres unmarked) [Example 45, N-(4-(2-(1-hydroxy-3-methylbutyl)quinolin-6-yl)pyridin-2-yl)acetamide]

Second part, the compound before the results:

Row | Compound | IC50 [nM]
3 | CC(C)CC(N)c1ccc2cc(-c3ccnc(NC(=O)c4ccc(C(F)(F)F)cc4)c3)ccc2n1 (centres unmarked) [Example 42, N-(4-(2-(1-amino-3-methylbutyl)quinolin-6-yl)pyridin-2-yl)-4-(trifluoromethyl)benzamide] | 11 to 100
4 | CC(C)CC(N)c1cc(C#N)c2cc(-c3ccncc3)cc(F)c2n1 (centres unmarked) [Example 44, 2-(1-amino-3-methylbutyl)-8-fluoro-6-(pyridin-4-yl)quinoline-4-carbonitrile] | 11 to 100
5 | CC(C)CC(N)c1ccc2cc(-c3ccnc(C4CC4)c3)ccc2n1 (centres unmarked) [Example 50, 1-(6-(2-cyclopropylpyridin-4-yl)quinolin-2-yl)-3-methylbutan-1-amine] | 101 to 2500
